Test results: patent publication US6500842B1, “8-hydroxy-7-substituted quinolines as anti-viral agents” (Pharmacia & Upjohn Company, priority 1996, dated 2002)
Where “and” joins values, the source holds several entries; their conditions need not be identical. Equal values may be shown once. Read-outs that look alike come from different tables or passages of the source.

Columns and labels:
HCMV polymerase = target: T1, HCMV polymerase (Human cytomegalovirus, UniProt P08546); test: HCMV polymerase assay (scintillation proximity assay); type: biochemical; conditions: pol type CMV
T1 construct: made in house; host or cells: recombinant baculovirus-infected SF-9 cells
T1 sequence (P08546 whole entry): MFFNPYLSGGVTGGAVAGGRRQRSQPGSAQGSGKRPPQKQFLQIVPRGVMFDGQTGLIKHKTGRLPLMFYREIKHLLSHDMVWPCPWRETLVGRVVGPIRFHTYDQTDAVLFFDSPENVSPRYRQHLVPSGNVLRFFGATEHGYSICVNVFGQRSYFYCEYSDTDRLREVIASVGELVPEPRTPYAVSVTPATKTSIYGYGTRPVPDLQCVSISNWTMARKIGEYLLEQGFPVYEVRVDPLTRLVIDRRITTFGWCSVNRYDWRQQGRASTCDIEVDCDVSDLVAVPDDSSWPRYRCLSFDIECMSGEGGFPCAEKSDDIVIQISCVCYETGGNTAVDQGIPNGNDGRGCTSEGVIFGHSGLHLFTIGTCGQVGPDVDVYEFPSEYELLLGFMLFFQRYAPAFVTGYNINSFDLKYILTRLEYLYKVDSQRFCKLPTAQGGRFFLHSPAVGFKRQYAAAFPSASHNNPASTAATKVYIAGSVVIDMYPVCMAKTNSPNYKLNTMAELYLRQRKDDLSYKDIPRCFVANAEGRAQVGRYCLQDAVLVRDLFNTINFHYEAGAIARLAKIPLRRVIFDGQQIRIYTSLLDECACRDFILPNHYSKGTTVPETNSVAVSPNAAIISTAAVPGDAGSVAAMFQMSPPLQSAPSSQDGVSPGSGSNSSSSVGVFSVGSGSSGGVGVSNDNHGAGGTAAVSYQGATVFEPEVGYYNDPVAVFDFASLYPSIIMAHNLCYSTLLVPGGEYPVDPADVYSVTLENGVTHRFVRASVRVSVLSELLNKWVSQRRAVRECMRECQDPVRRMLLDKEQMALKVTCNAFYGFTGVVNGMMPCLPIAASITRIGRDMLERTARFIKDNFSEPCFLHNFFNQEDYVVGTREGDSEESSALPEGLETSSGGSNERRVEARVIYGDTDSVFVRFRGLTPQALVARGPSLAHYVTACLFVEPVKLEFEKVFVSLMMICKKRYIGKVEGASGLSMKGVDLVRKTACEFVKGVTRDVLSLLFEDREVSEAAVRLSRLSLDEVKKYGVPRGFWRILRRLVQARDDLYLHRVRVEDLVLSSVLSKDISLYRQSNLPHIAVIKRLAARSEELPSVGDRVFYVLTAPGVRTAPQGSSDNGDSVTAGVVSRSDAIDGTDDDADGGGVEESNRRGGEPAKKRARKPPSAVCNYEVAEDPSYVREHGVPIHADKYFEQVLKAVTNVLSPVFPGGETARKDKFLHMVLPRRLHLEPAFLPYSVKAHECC
How it was run: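 Baculovirus/SF-9-expressed purified enzyme in HEPES pH 7.5, KCl, 4.5 mM MgCl2, BSA, with 90 nM ³H-dTTP, ± 2 mM CHAPS; started with 6 nM biotinylated poly(dA)-oligo(dT), 30 min, stopped with EDTA. Incorporation read by streptavidin SPA beads; IC50 by linear regression.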

[1] = Table 1, read-out: CMV pol Assay IC50

Row | SMILES | IC50 (HCMV polymerase; [1]) [µM] | melting point | IC50 (HCMV polymerase; Table 5, read-out: IC50) | IC50 (HCMV polymerase; Table 2, read-out: IC50)
1 | Br.O=S(=O)(NCCCc1ccccc1)c1cc(Cl)c2cccnc2c1O [Example 21, 5-Chloro-8-hydroxy-N-(3-phenylpropyl)-7-quinolinesulfonamide monohydrobromide] | – | 210 to 212 °C (dec.) | – | 7.5 µM and 12.6 µM
2 | O=C(Nc1nc2ccc(Cl)cc2s1)c1ccc2cccnc2c1O [Example 13, N-(6-Chloro-2-benzothiazolyl)-8-hydroxy-7-quinolinecarboxamide] | > 100 | > 320 °C | – | –
3 | CCCCCCCNC(=O)c1ccc2ccc(/C=C/c3ccc(OC)cc3)nc2c1O [Example 48, N-Heptyl-8-hydroxy-2-[2-(4-methoxyphenyl)ethenyl]-7-quinolinecarboxamide] | – | 115 to 116 °C | 0.5 µM and < 3.1 µM | –
4 | Cc1ccc2c(Cl)cc(S(=O)(=O)NCc3ccccc3)c(O)c2n1 [Example 27, 5-Chloro-8-hydroxy-2-methyl-N-(phenylmethyl)-7-quinoline-sulfonamide] | – | 113 to 114 °C | – | 14.8 µM
5 | O=C(NCc1ccc([N+](=O)[O-])cc1)c1ccc2cccnc2c1O [Example 12, 8-Hydroxy-N-[(4-nitrophenyl)methyl]-7-quinolinecarboxamide] | 15.9 | 210 to 212 °C | – | –
6 | Cc1ccc2c(Cl)cc(S(=O)(=O)NCCc3ccc(Cl)cc3Cl)c(O)c2n1 [Example 25, 5-Chloro-N-[2-(2,4-dichlorophenyl)ethyl]-8-hydroxy-2-methyl-7-quinolinesulfonamide] | – | 132 to 135 °C | – | 3.6 µM
7 | O=C(Nc1nnc(Br)s1)c1ccc2cccnc2c1O [Example 244, N-(5-Bromo-1,3,4-thiadiazol-2-yl)-8-hydroxy-7-quinolinecarboxamide] | – | 250 °C (dec.) | – | –
8 | Cc1ccc2c(Cl)cc(S(=O)(=O)NCC3CCCCC3)c(O)c2n1 [Example 32, 5-Chloro-N-(cyclohexylmethyl)-8-hydroxy-2-methyl-7-quinolinesulfonamide] | – | 113 to 115 °C | – | –

Next, values leading:

Row | IC50 (HCMV polymerase; [1]) [µM] | melting point | IC50 (HCMV polymerase; Table 5, read-out: IC50) | IC50 (HCMV polymerase; Table 2, read-out: IC50) | SMILES
9 | 1.6 | 214 to 216 °C | – | – | O=C(Nc1ccc(Cl)cc1)c1cc(Cl)c2cccnc2c1O [Example 15, 5-Chloro-N-(4-chlorophenyl)-8-hydroxy-7-quinolinecarboxamide]
10 | – | 135 to 140 °C (dec.) | 23.3 µM | – | O=C(NCc1ccc(Cl)cc1)c1ccc2c(O)cc(C(F)(F)F)nc2c1O [Example 46, N-[(4-Chlorophenyl)methyl]-4,8-dihydroxy-2-trifluoromethyl-7-quinolinecarboxamide]
11 | – | 284 to 287 °C (dec.) | – | 5.5 µM | Cc1ccc2c(Cl)cc(S(=O)(=O)Nc3ccc(Cl)cc3)c(O)c2n1 [Example 28, 5-Chloro-N-(4-chlorophenyl)-8-hydroxy-2-methyl-7-quinoline-sulfonamide]
12 | 7.1 | 207 to 209 °C | – | – | O=C(Nc1ccc(Cl)cc1)c1ccc2cccnc2c1O [Example 3, N-(4-Chlorophenyl)-8-hydroxy-7-quinolinecarboxamide]
13 | – | 158 to 161 °C (dec.) | – | 11.3 µM | Cc1ccc2c(Cl)cc(S(=O)(=O)NCc3ccc(Cl)cc3)c(O)c2n1 [Example 17, 5-Chloro-N-[(4-chlorophenyl)methyl]-8-hydroxy-2-methyl-7-quinolinesulfonamide]
14 | 2.5 | 148 to 151 °C | – | – | O=C(NCc1ccc(Cl)cc1)c1cc(Br)c2cccnc2c1O [Example 9, 5-Bromo-N-[(4-chlorophenyl)methyl]-8-hydroxy-7-quinolinecarboxamide]
15 | 6.8 | 272 to 276 °C (dec.) | – | – | O=C(NC1=NC(=O)C(c2ccc(Cl)cc2)S1)c1ccc2cccnc2c1O (stereo not drawn) [Example 5, N-[5-(4-Chlorophenyl)-4,5-dihydro-4-oxo-2-thiazolyl]-8-hydroxy-7-quinolinecarboxamide]
16 | 6.9 | 279 to 281 °C (dec.) | – | – | O=C(Nc1ncc(-c2ccc(Br)s2)s1)c1ccc2cccnc2c1O [Example 7, N-[5-(5-Bromo-2-thienyl)-2-thiazolyl]-8-hydroxy-7-quinolinecarboxamide]
